PubChem BioAssay (NCI)
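Five compound concentrations were applied to cells in 96-well plates for 48 hours; endpoints were derived by simple linear interpolation of the resulting dose-response curve. GI50 is the concentration that inhibits growth by half. TGI is the concentration that stops growth completely.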

Columns and labels:
Assay in all cases: growth of human tumour cells (NCI), 48 h
IGROV1 ovarian = test system: IGROV1 ovarian
HL-60(TB) leukemia = test system: HL-60(TB) leukemia
CCRF-CEM leukemia = test system: CCRF-CEM leukemia
HT29 colon = test system: HT29 colon
NCI-H522 lung = test system: NCI-H522 lung
SN12C renal = test system: SN12C renal
COLO 205 colon = test system: COLO 205 colon
UACC-62 melanoma = test system: UACC-62 melanoma
SF-268 CNS = test system: SF-268 CNS
HOP-62 NSCLC = test system: HOP-62 NSCLC

Compound	TGI (IGROV1 ovarian)	TGI (HL-60(TB) leukemia)	TGI (CCRF-CEM leukemia)	TGI (HT29 colon)	TGI (NCI-H522 lung)	TGI (SN12C renal)	TGI (COLO 205 colon)	TGI (UACC-62 melanoma)	TGI (SF-268 CNS)	TGI (HOP-62 NSCLC)	GI50 (IGROV1 ovarian)	GI50 (HL-60(TB) leukemia)	GI50 (CCRF-CEM leukemia)	GI50 (HT29 colon)	GI50 (NCI-H522 lung)	GI50 (SN12C renal)	GI50 (COLO 205 colon)	GI50 (UACC-62 melanoma)	GI50 (SF-268 CNS)	GI50 (HOP-62 NSCLC)
Cc1cc(=O)oc2cc(OC(=O)N(C)C)c(Cl)cc12	> 100 µM	> 100 µM	> 100 µM	> 100 µM	> 100 µM	> 100 µM	> 100 µM	83.2 µM	> 100 µM	79 µM	–	–	–	–	–	–	–	–	–	–
COc1ccc(Nc2nc3ccc(C(F)(F)F)cc3nc2-c2ccccc2)cc1OC	> 100 µM	> 100 µM	> 100 µM	22.6 µM	75.3 µM	> 100 µM	91.2 µM	> 100 µM	> 100 µM	> 100 µM	–	–	–	–	–	–	–	–	–	–
CC(C)CC(NC(=O)c1cccc(O)c1O)C(=O)NCc1cc(CNC(=O)C(CC(C)C)NC(=O)c2cccc(O)c2O)cc(CNC(=O)C(CC(C)C)NC(=O)c2cccc(O)c2O)c1 (stereo not given)	27.1 µM	19.2 µM	54 µM	30.9 µM	16.8 µM	56.3 µM	34.3 µM	17.8 µM	> 100 µM	52.8 µM	–	–	–	–	–	–	–	–	–	–
COc1ccc2c(c1)N1CCc3cc(OC)c(OC)cc3C1C2 (stereo not given)	> 100 µM	> 100 µM	> 100 µM	> 100 µM	> 100 µM	> 100 µM	> 100 µM	> 100 µM	> 100 µM	> 100 µM	–	–	–	–	–	–	–	–	–	–
CN(C)CC(C)(C)C(=O)/C=C/c1ccc(/C=C/C(=O)C(C)(C)CN(C)C)cc1	3.33 µM	4.17 µM	3.78 µM	1.77 µM	0.292 µM	3.55 µM	2.24 µM	3.17 µM	2.86 µM	4.51 µM	–	–	–	–	–	–	–	–	–	–
Clc1ccc(SC(/C=C/NNC2=NC(c3ccccc3)C(c3ccccc3)=NN2)c2ccccc2)cc1 (stereo not given)	> 100 µM	41.9 µM	73.1 µM	39.3 µM	73.7 µM	> 100 µM	45.6 µM	85.3 µM	78.1 µM	> 100 µM	–	–	–	–	–	–	–	–	–	–
COC(=O)[C@@H](C)C[C@H](Cc1ccccc1)NC(=O)c1csc(CC[C@H](C(C)C)N(C)C(=O)[C@@H](NC(=O)[C@H]2CCCCN2C)C(C)C)n1	> 33.3 µM	0.298 µM	> 33.3 µM	6.01 µM	0.301 µM	> 33.3 µM	1.53 µM	> 33.3 µM	> 33.3 µM	> 33.3 µM	0.291 µM	0.0799 µM	0.295 µM	0.211 µM	0.0656 µM	0.435 µM	0.19 µM	0.14 µM	0.722 µM	0.536 µM
O=c1nc(/C=C/c2ccccc2Cl)cc2n1CCN2CCO	> 100 µM	> 100 µM	> 100 µM	> 100 µM	47.4 µM	> 100 µM	> 100 µM	> 100 µM	> 100 µM	> 100 µM	–	–	–	–	–	–	–	–	–	–
CC(=O)O[C@H]1CC[C@@]2(C)C(=CC[C@H]3[C@@H]4CC[C@H](c5cc(C(F)(F)F)n(C(C)=O)n5)[C@@]4(C)CC[C@@H]32)C1	16.4 µM	15.4 µM	9.04 µM	17.4 µM	> 38.5 µM	20.8 µM	14.5 µM	24.5 µM	> 48.1 µM	21.2 µM	–	–	–	–	–	–	–	–	–	–
COc1ccc2c(c1)C(=O)c1c-2n(CCCN=[N+]=[N-])c(=O)c2cc(OC)c(OC)cc12	> 100 µM	25.7 µM	16.4 µM	> 100 µM	> 100 µM	> 100 µM	> 100 µM	> 100 µM	> 100 µM	63.2 µM	16 µM	13 µM	4.01 µM	> 100 µM	43.8 µM	64.7 µM	> 100 µM	21 µM	79.4 µM	11.6 µM
CC[N+](CC)=c1sc2c(s1)C(c1ccc(Cl)cc1)Oc1ccc(Cl)cc1-2 (stereo not given)	10.7 µM	5.98 µM	6.35 µM	5.07 µM	2.89 µM	3.33 µM	3.77 µM	4.14 µM	2.08 µM	5.56 µM	1.6 µM	2.22 µM	0.665 µM	2.2 µM	0.67 µM	1.33 µM	1.65 µM	1.65 µM	0.461 µM	1.22 µM
Clc1nc(Cl)c2ncn(Cc3cccc(Cn4cnc5c(Cl)nc(Cl)nc54)c3)c2n1	20.2 µM	82.8 µM	5.32 µM	> 100 µM	7.01 µM	18.3 µM	11.3 µM	5.91 µM	31.5 µM	18 µM	7.33 µM	2.9 µM	2.25 µM	4.42 µM	2.9 µM	4.73 µM	3.37 µM	2.41 µM	13 µM	4.97 µM
O=c1c(Oc2ccc(F)cc2F)cc2cnc(NC3CCOCC3)nc2n1CCCO	> 25 µM	> 25 µM	> 25 µM	> 25 µM	> 25 µM	> 25 µM	> 25 µM	> 25 µM	> 25 µM	> 25 µM	> 25 µM	> 25 µM	> 25 µM	> 25 µM	> 25 µM	> 25 µM	> 25 µM	> 25 µM	> 25 µM	> 25 µM
COc1cccc(-c2nc3sccn3c2-c2ccnc(NCCCNS(=O)(=O)c3cccc(F)c3)c2)c1	9.77 µM	4.91 µM	> 100 µM	23.9 µM	8.41 µM	> 100 µM	11.1 µM	5 µM	> 100 µM	29.1 µM	2.39 µM	1.84 µM	2.26 µM	3.01 µM	2.11 µM	2.94 µM	2.22 µM	1.62 µM	3.26 µM	2.83 µM
